# Test system: SARS-CoV-2 Wuhan virus (SARS-CoV-2-WA1 2020)
# Assay: microbe, parasite or virus in culture
# Type: cell-based
smiles,measurement,setting,value
CCC(CC)COC(=O)[C@H](C)N[P@](=O)(OC[C@H]1O[C@@](C#N)(c2ccc3c(N)ncnn23)[C@H](O)[C@@H]1O)Oc1ccccc1 [Remdesivir],fold reduction in SARS-CoV-2 replication,,1.5 fold
same,inhibition of SARS-CoV-2 Wuhan,,did not inhibit
same,EC50,"Severe acute respiratory syndrome coronavirus 2, Vero C1008",~800 nM

# Source: patent US20230323355A1 (priority 2020, published 2023)
